Experimental data: patent US6767890B1, “Peptides having anti-cancer and anti-inflammatory activity” (priority 1998, dated 2004)
Several values for one entry are separate records, joined by “and”; a condition that tells them apart may be missing. Equal values may be shown once.

Key:
[1] = molecular target: Protein Kinase C, Non-Select.; assay: Protein Kinase C, Non-Select. enzyme assay; type: biochemical, rat; details: historical value; read-out: ^1IC, (IC50 of reference compound)
Description: (§1) The peptide was further screened in vitro in a variety of enzyme and biochemical assays. Methods employed were adapted from the scientific literature to maximize reliability and reproducibility. The primary literature reference for each assay is listed in Table 11 opposite the results for each assay.
(§2) Results presented in Table 10, “Results,” are the average of duplicate determinations, unless otherwise noted.
(§3) Reference compounds were tested concurrently at 5 concentrations as an integral part of each assay to ensure the validity of the results obtained.
Enzyme assays were performed under conditions described in Table 8, “Experimental Conditions.”. The commercial suppliers and catalog numbers of substrates employed in this study are given in Table 7, “Material Sources.” The name, commercial source, and catalog numbers of concurrent reference compounds (controls) employed in this study are given in Table 9, “Reference Compound Data.” The reaction catalyzed by each enzyme is listed in Table 8, “Experimental Conditions.”
Biochemical assay results are presented in Table 10, as the percent inhibition of specific binding or activity, and unless noted are the average of duplicate tubes tested at each concentration.

histamine H3 receptor = molecular target: T1, histamine H3 receptor (Cavia porcellus, UniProt Q9JI35); assay: Histamine H3 Agonism/Antagonism, guinea pig ileum; type: cell-based; details: Peptide 30 μM, Thioperamide 0.3 μM; for Agonism, Ave.: R(α)-Methylhistamine 0.3 μM; for Agonism: relaxation within 5 minutes relative to 0.3 μM R-α-methylhistamine, R(α)-Methylhistamine 0.3 μM (0.1 printed in r13)
T1 construct: ileum obtained from Duncan Hartley derived male or female guinea pigs; from tissue; host or cells: guinea pig ileum segment, field-stimulated
Description: A segment of ileum obtained from Duncan Hartley derived male or female guinea pigs weighing 325±25 gms and sacrificed by CO2 overexposure were used. The tissue was placed under 0.5 g tension in a 10 ml bath containing Kreb's solution pH 7.4 and pyrilamine (0.3 μM) at 32° C. and subjected to field stimulation (70% of maximum voltage, 0.1 Hz, 0.5 millisecond). Test substance (30 μM)-induced reduction of isometrically recorded contractions 50 percent or more (≧50%) within 5 minutes, relative to control 0.3 μM R-α-methylhistamine response, indicated possible histamine H3 receptor agonist activity. At a test substance concentration where no significant agonist activity was seen, ability to inhibit R-α-methylhistamine-induced response by 50 percent or more (≧50%) indicated histamine H3 receptor antagonist activity. Each concentration was tested on two separate preparations.

[2] = tested on: oxazolone-induced ear swelling; assay: Immune Suppression, Cellular (oxazolone ear thickness); type: in vivo, mouse; details: IP, Peptide 100 mg/kg × 5, Cyclophosphamide 30 mg/kg × 5
Description: (§4) For in vivo assay, distilled water and saline was used as vehicle in oral and intraperitoneal administration, respectively. Dosing volume was 20 ml/kg for mice or 10 ml/kg for rats.
Groups of 5 ICR derived male mice weighing 22±1 gms were used. The preshaved abdominal surface was sensitized by application of oxazolone 0.1 ml of 5% solution. […] After additional four days, the animals were challenged by secondary application of oxazolone (0.025 ml of 5% solution) to the right ear. After a further 24 hours, each mouse was sacrificed and ear thickness measured with a Dyer Model micrometer gauge. A 30 percent or more (≧30%) decrease relative to the vehicle control group was considered significant and indicated possible immunosuppressant activity.

[3] = tested on: Adjuvant Induced Arthritis; assay: Adjuvant Induced Arthritis Model; type: in vivo; details: rat, 20 mg per KG body weight orally once per day for 14 days, Day 14
Description: Adjuvant Induced Arthritis Model: Male Sprague-Dawley rats (160-180 g) were sensitized by injecting Fruend's Complete Adjuvant (0.5% suspension of killed mycobacterium tuberculosis (H37RA, Difco in mineral oil)). 0.05 ml was administered intradermally at a plantar site on the right hind leg of each rat. The test materials were given orally (by gavage) in 0.5% methylcelluose, at a dose level of 20 milligrams per kilo body weight, and given once per day for 14 days. The administration was started the day after sensitization. The left hind paw was measured just before sensitization and on Day 14, and the plantar edema inhibitory rate and the body weight gain rate were determined in comparison with the nonsensitized rat groups. The paw weights for each group in each test run were averaged. Activity was calculated as follows: [formula]
The Anti-inflammatory response is the difference in the mean foot volume. […] FIG. 4.

[4] = tested on: DNBS-induced distal colitis; assay: Inflammation, Inflammatory Bowel Disease (DNBS distal colitis); type: in vivo, rat; details: PO, Peptide 30 mg/kg × 7, Sulfasalazine 300 mg/kg × 7
Description: as §4
Groups of 3 Sprague-Dawley derived male rats weighing 150±20 gms and fasted for 24 hours were used. Distal colitis was induced by intra-colonic instillation of DNBS (2,4-dinitrobenzene sulfonic acid, 30 mg in 0.5 ml ethanol 30%) after which air (2 ml) was gently injected through the cannula to ensure that the solution remains in the colon. Test substance was administered PO (30 mg/kg) at 24 and 2 hours before DNBS instillation. Then, the animals received test compound every 24 hours for 5 consecutive days. The control group was given vehicle alone as compound dosing pattern. The animals were sacrificed 24 hours after the final dose of test compound administration and each colon was removed and weighed. Colon-to-body weight ratio was obtained from the percentage of the comparison between the animal colon weight and body weight on the 8th day. A 30 percent or more (±30%) reduction in colon-to-body weight ratio relative to the vehicle treated control group was considered significant.

Sarcoma 180 tumor = assay: Anti-Cancer Activity Against Mouse Tumor Sarcoma 180; type: in vivo; details: 10 mg/kg
Description: This model has been used extensively as indicative of neovascularization in mammals inasmuch as the tumor so implanted is quickly vascularizing.
Experimental Design: All mice were weighed at test initiation and test termination. The animals were divided into three groups. The Sarcoma 180 tumor was made up from a passage mouse to furnish […] per 0.1 mL inoculum. The cells were injected into the left leg hamstring muscle mass. The was delivered to the mice by I.P. injections, or gavage on days 1-5.
At the termination of the experiments, the mice were weighed and the left rear leg was amputated at the thigh. The skin was removed from the leg to expose the site at which the tumor was located. […].

PAF-induced mortality = assay: Platelet Activating Factor (PAF) Antagonism; type: in vivo, mouse; details: Peptide 100 mg/kg, WEB-2086 3 mg/kg
Description: as §4
Groups of 5 male ICR mice weighing 22±2 gms were employed. At dose of 100 mg/kg test substance dissolved in a vehicle of distilled water were administered orally. The control group received vehicle alone. At 60 minutes after dosing, the animals were injected intravenously PAF-acether ([…] IV, dissolved in 0.25% BSA). One hour later, the survival animals were recorded. The prevention of PAF-induced mortality in 50 percent or more (≧50%) of mice indicated significant activity.

Histamine H3 = molecular target: T2, Histamine H3 (Rattus norvegicus, UniProt Q9QYN8); assay: Histamine H3 radioligand binding; details: historical value
T2 construct: rat brain; from tissue; host or cells: rat brain
Description: as §1, §2, §3
Radioligand binding assays were performed under conditions described in Table 8, “Experimental Conditions.” Radioligands employed in this study are given in Table 8, and commercial sources and catalog numbers of the radioligands are provided in Table 7, “Material Sources.” Unlabeled, blocking ligands employed this study are listed in Table 8, “Experimenal Conditions,” along with the commercial sources and catalog number of the unlabeled ligand. The concurrent reference compound (control) employed in each assay is listed in Table 9, “Reference Compound Data,” along with the commercial supplier and catalog number of the compound. […]
Maximum total binding and nonspecific binding were determined each time each assay was run. […]
Where inhibition constants (Ki) are presented, the Ki values were calculated using the equation of Cheng and Prusoff (Cheng, Y., Prusoff, W. H., Biochem. Pharmacol. […], 1973) using the observed IC50 of the tested compound, the concentration of radioligand employed in the assay, and the historical values for the Kd of the ligand (obtained experimentally). Where presented, the Hill Coefficient (nH), defining the scope of the competitive binding curve, was calculated using GraphPad Prism. […] Where IC50, Ki, and/or Hill Slope data is presented without Standard Error of the Mean (SEM), data are insufficient to be quantitative, and the values presented (Ki, IC50, nH) should be interpreted with caution. […]

[5] = tested on: ovalbumin-induced bronchoconstriction; assay: Pulmonary, Histamine H3 (ovalbumin-induced bronchoconstriction); type: in vivo, guinea pig; details: Peptide PO 10 mg/kg, R-α-methylhistamine IV 30 mg/kg
Description: as §4
A group of Duncan Hartley derived male or female guinea pigs weighing 250±50 gms were anesthetized with pentobarbital sodium (50 mg/kg IP plus an additional 15 mg/kg IP if required) and succinylcholine chloride (2 mg/animal IP) was subsequently administered to prevent spontaneous respiration. Body temperature was maintained at 37° to 38° C. The trachea was cannulated and the guinea pig ventilated with a Harvard rodent respirator in a closed system. Tracheal pressure (TP) was recorded through a side-arm of the cannula connected to a P23ID Statham transducer. Respiratory rate set at 50 strokes/minute with a stroke volume (approximately 1 ml/100 g) sufficient to produce a baseline tracheal pressure of 6 cm H2O. Mean arterial pressure was monitored from a cannulated carotid artery, and heart rate was obtained from chest electrodes arranged for lead II. The jugular vein was cannulated for IV vehicle or drug administration in a volume of 1 ml/kg. Guinea pigs were sensitized with IP injections of ovalbumin 0.5 μg+Al(OH)3 1 mg (0.5 ml/animal) on days 1, and boosted with same dosage of ovalbumin and Al(OH)3 vaccine on day 8; and the animals were ready to be challenged between days 19 and 23 to get a submaximal ovalbumin (50 μg/kg IV)-induced bronchoconstriction, reflected as an increase in tracheal pressure (cm H2O). […]. Test substances were administered PO (10 mg/kg) at 60 minutes before ovalbumin (50 μg/kg IV) challenge in 3 guinea pigs. Tracheal pressure, blood pressure and heart rate were measured immediately before and after ovalbumin challenge.

T1 sequence (Q9JI35 whole entry): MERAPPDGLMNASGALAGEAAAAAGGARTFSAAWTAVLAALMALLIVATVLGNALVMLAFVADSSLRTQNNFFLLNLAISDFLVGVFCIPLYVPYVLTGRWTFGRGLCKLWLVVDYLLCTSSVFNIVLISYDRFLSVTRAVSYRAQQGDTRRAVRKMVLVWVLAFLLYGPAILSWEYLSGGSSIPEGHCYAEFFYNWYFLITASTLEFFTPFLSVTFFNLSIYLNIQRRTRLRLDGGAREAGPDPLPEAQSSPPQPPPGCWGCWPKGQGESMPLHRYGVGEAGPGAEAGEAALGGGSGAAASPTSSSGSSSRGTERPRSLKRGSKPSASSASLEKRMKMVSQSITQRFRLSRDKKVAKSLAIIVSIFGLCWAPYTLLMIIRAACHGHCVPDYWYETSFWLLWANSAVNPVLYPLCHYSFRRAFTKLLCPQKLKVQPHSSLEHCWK
T2 sequence (Q9QYN8 whole entry): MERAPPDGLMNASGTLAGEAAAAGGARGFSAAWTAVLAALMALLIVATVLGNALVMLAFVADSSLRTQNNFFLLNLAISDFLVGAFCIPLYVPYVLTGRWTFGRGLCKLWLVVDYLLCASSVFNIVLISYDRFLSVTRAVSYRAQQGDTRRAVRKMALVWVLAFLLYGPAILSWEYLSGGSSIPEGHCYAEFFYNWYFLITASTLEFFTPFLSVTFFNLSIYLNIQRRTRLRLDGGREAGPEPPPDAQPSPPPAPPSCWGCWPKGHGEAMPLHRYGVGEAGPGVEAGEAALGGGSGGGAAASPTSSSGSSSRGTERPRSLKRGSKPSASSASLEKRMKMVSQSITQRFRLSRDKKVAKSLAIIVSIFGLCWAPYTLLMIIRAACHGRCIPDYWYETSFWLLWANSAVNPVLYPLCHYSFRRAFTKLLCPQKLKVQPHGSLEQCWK

For CC1CNCCN1S(=O)(=O)c1cccc2cnccc12 (stereo not drawn) [Peptide H-7, reference compound], the IC50 [1] was 35000 nM.

In the case of S=C(NC1CCCCC1)N1CCC(c2cnc[nH]2)CC1 [Thioperamide], the “Agonism, Ave.” value (histamine H3 receptor; average of two preparations) is reported as 0%, the “Antagonism, Ave.” value (histamine H3 receptor; average of two preparations) is reported as 93% and the Antagonism (histamine H3 receptor; individual preparation, reduction of 0.3 μM R(α)-methylhistamine-induced relaxation) is reported as 90% and 96%. The Agonism (histamine H3 receptor; individual preparation) was 0%.

For O=P1(N(CCCl)CCCl)NCCCO1 (stereo not drawn) [Cyclophosphamide, Cyclophosphamide Monohydrate], the “% INH.” value ([2]; decrease of net ear thickness relative to vehicle control) was 51%, the “Thickness Net, X (group mean)” value ([2]; group mean) was 13.4 × 0.1 mm and the “Thickness Net” value ([2]; individual mouse, R. Ear minus L. Ear, Monohydrate) was 16 × 0.1 mm and 10 × 0.1 mm and 14 × 0.1 mm and 7 × 0.1 mm and 20 × 0.1 mm. For the same compound, the “Thickness R. Ear” value ([2]; individual mouse, challenged right ear, 24 hours after oxazolone challenge, Monohydrate) was 38 × 0.1 mm and 26 × 0.1 mm and 32 × 0.1 mm and 23 × 0.1 mm and 40 × 0.1 mm and the “Thickness L. Ear” value ([2]; individual mouse, left ear, Monohydrate) was 22 × 0.1 mm and 16 × 0.1 mm (2×) and 18 × 0.1 mm and 20 × 0.1 mm.

For CCCCC1C(=O)N(c2ccccc2)N(c2ccccc2)C1=O [Phenylbutazone], the “anti-inflammatory response (percent inhibition)” value [3] was 112.2%.

For O=C(O)c1cc(/N=N/c2ccc(S(=O)(=O)Nc3ccccn3)cc2)ccc1O [Sulfasalazine], the “Ratio Net” value ([4]; group mean minus blank-control) was 0.181%, the “Ratio Ind., X (group mean)” value ([4]; group mean) was 0.551% and the “Ratio Ind. (colon-to-body weight ratio)” value ([4]; individual rat, Colon (g)/8th B.W. × 100%) was 0.496% and 0.508% and 0.650%. For the same compound, the “% INH.” value ([4]; reduction in colon-to-body weight ratio relative to vehicle control) was 49%.

With C[C@]12CCC(=O)C=C1CC[C@@H]1[C@@H]2[C@@H](O)C[C@@]2(C)[C@H]1CC[C@]2(O)C(=O)CO [hydrocortisone] the “anti-inflammatory response (percent inhibition)” value [3] was 132.6%.

With “LEU-PRO-PRO-SER-ARG [synthetic peptide (crude 60%)]” the “% tumor inhibition” value (Sarcoma 180 tumor; I.P. injections or gavage on days 1-5, 6 mice) was 58.6% and the “Mean tumor wt. gain, gm” value (Sarcoma 180 tumor; net tumor weight, I.P. injections or gavage on days 1-5, 6 mice) was 1.45 gm.

For Cc1nnc2n1-c1sc(CCC(=O)N3CCOCC3)cc1C(c1ccccc1Cl)=NC2 [WEB-2086, reference compound], the “% Protection” value (PAF-induced mortality; PO one hour before PAF-acether 100 μg/kg IV) was 60% and the “No. of Survival” value (PAF-induced mortality; of 5 mice, one hour after PAF-acether 100 μg/kg IV, PO one hour before) was 3.

CNCCc1cnc[nH]1 [NAMH] was tested, and the IC50 (Histamine H3; read-out: ^1IC, (IC50 of reference compound)) was 2.9 nM and the Ki (Histamine H3; read-out: ^1K1 (Ki of reference ligand)) was 0.75 nM.

For C[C@@H](N)Cc1c[nH]cn1 [R (α)-Methylhistamine, R-α-Methyl histamine, reference compound], the “Inc. of TP X ± SEM” value ([5]; group mean, N=3) was 11.3 ± 7.2 cm H2O, the “Inc. of TP Ind.” value ([5]; individual guinea pig, tracheal pressure after ovalbumin 50 μg/kg IV) was 8.5 cm H2O and 25.0 cm H2O and 0.5 cm H2O and the “% INH.” value ([5]; inhibition of induced bronchoconstriction relative to vehicle) was 61.6%. For the same compound, the “Agonism, Ave.” value (histamine H3 receptor; average of two preparations) was 100% and the Agonism (histamine H3 receptor; individual preparation) was 100%.
